Data set [1] in a line: Clinically relevant exposures (clinical plasma exposure, protein adjusted). Format: in vivo. How it is done:
(§1) Clinically relevant doses of Compound A were calculated.
A set of data was selected from the synergy screening to represent clinically relevant concentration ranges of venetoclax and Compound A. […] Cmin and Ctrough of Compound A were similarly adjusted.

A short description of data set [2]: Protein shift: free fraction in human plasma / cell culture media. The class given is in vitro ADME. How it is done: as §1
A set of data was selected from the synergy screening to represent clinically relevant concentration ranges of venetoclax and Compound A. The average concentration of venetoclax (Cav) was estimated at the 400 mg dose adjusted for protein binding using empirically determined free fraction in human plasma/cell culture media. Cmin and Ctrough of Compound A were similarly adjusted.

For data set [3] the following is noted: ABT-199, 400 mg dose, Phase I NHL study; cited from earlier work.
A further data set concerns Myc protein. The data set is described as follows: Reduction of Myc protein expression by Compound A. The class given is cell-based, human. Conditions: subset of cell lines of FIG. 1, dose-dependent.
The subject of a further data set is DLBCL and FL cell lines. The data set is described as follows: Annexin V apoptosis assay (flow cytometry). Format: cell-based, human. The procedure:
Apoptosis induced by Compound A was measured by Annexin V staining as detected by flow cytometry. Compound A was diluted two-fold in duplicate to a starting concentration of 5 mM in 100% DMSO, and then serially diluted by three-fold in 100% DMSO in a 96 well plate format to achieve a 500× dose range of 5 mM to 0.76 μM. Serially-diluted Compound A was then further diluted 1:5 in sterile water to generate a 100× stock and finally diluted 1:100 into assay plate wells containing 200 μL of cells. The final concentration of DMSO was 0.2% in 200 μL in the assay wells and the dose range of Compound A was 10 μM to 1.5 nM. Cells were plated at 20,000-80,000 cells per well and assay plates were incubated after compound addition at 37° C. with 5% CO2 for 3 days in growth medium appropriate for each cell line. Control wells on all assay plates included 0.2% DMSO (0% apoptosis on day 3), 1 μM Velcade®, and 1 μM staurosporine (apoptosis control on day 3). Velcade® and staurosporine were used as benchmarks to ensure apoptosis could be achieved in each cell line.
After 72 to 96 hours, the cell compound mixture was transferred to a 96-well deep well conical bottom plate, centrifuged at 300×g, and cell pellets were re-suspended in DPBS. Plates were centrifuged at 300×g, supernatant was decanted, and cell pellets were re-suspended in 500 μl of pre-diluted LIVE/DEAD® Fixable Aqua Dead Cell Stain for 30 minutes at room temperature protected from light. Assay plates were centrifuged at 300×g, supernatant was decanted, and cell pellets were washed twice in 500 μL of DPBS containing 4% FBS. The washed pellets were re-suspended in 100 μL DPBS containing 4% FBS, 5 μL of Annexin V APC was added to each well, and assay plates were incubated for 30 minutes at room temperature, protected from light. Assay plates were washed twice with 500 μL of DPBS containing 4% FBS per well, and cell pellets were finally re-suspended in 250 μL of DPBS containing 4% FBS.
Flow cytometric sampling of 20,000 total events within a forward scatter and side-scatter gate (P1) per well were collected on a BD FACS Canto II instrument with DIVA software (San Jose, Calif.) using a high throughput screen auto-sampler for analysis of apoptosis. Within the P1 gate Annexin V^+/LIVE/DEAD^− and Annexin V^+/LIVE/DEAD^+ cells were digitally monitored. Single- or double-labeled cells were gated, percentages of Annexin V-positive cells in each population were recorded and combined, and data were extracted to a flow cytometry standard file (fcs). Mean percentages of Annexin V-positive cells were determined for the positive control (Velcade® and staurosporine at 1 μM) and negative wells (0.2% DMSO) to ensure the assay performed as expected for each cell line on each experimental day.
EC50 values for each compound were calculated based on log concentration of drug and percent Annexin V-positive cells using a four-parameter logistical fit equation in Prism 6.01 of the GraphPad software package. The percentage of apoptosis at EC50 was interpolated from the curve fit for each cell line. […] For an experiment to be valid, the % baseline apoptosis for a given cell line was required to be <35%.
(§2) The activity of Compound A to induce apoptosis or inhibit cell growth was assessed across a panel of DLBCL cell lines. DLBCL cell lines were subjected to a ten point dose response of Compound A (range 0.5 nM-10,000 nM, 3× dilution series) and assessed for cell growth inhibition by CTG or apoptosis by AnnexinV staining after three or four days.
In general terms: Flow cytometry measures light scatter and fluorescence of single cells or particles in a stream.

The test system of the next data set is DLBCL cell lines. The data set can be described thus: Single agent cell growth assessment (Cell Titer Glo). The class given is cell-based. To be noted: Homo sapiens, 96 h, CTG, three or four days. The procedure:
Compound A was serially diluted by three-fold in 100% DMSO in a 96 well plate format in duplicate dose curves to achieve a dose range of 10 mM to […] as a 1000× stock. Serially-diluted 1000× Compound A was then further diluted 1:100 in RPMI-1640 without additives to generate a 10× stock and finally diluted 1:10 into assay plate wells containing 100 μL of cells. The final concentration of DMSO was 0.1% in 111 μL of final volume in the assay wells and the dose range of Compound A was 10 μM to 0.5 nM. […] Cell viability was assessed using Cell Titer Glo (CTG, Promega, Madison, Wis.) following the manufacturer's protocol. Luminescence was measured on an EnSpire Multimode Plate Reader (Perkin Elmer, Waltham, Mass., Model 2300-001M).
A replicate assay plate was created at study initiation, processed immediately for cell viability by CTG, and these values represented 0% growth (day 0). […] Curve fittings were applied with a four parameter variable slope model and the following three calculations were determined using the curve fits. […]
as §2
(In general: ATP-based viability assays read luminescence as a measure of living cells.)

Where “and” joins values, the source holds several entries; their conditions need not be identical. Identical values can stand only once. Like-named read-outs stand apart in the source and are kept apart here.

With `CC1(C)CCC(CN2CCN(c3ccc(C(=O)NS(=O)(=O)c4ccc(NCC5CCOCC5)c([N+](=O)[O-])c4)c(Oc4cnc5[nH]ccc5c4)c3)CC2)=C(c2ccc(Cl)cc2)C1` [venetoclax, reference compound], the Cmax (in general, the peak of the concentration-time curve) in data set [1] (ABT-199, 400 mg dose, cell culture media adjusted, read-out: CCM protein adjusted Cmax) is 536 nM; in data set [1] (human, plasma, 400 mg, ABT-199, 400 mg dose, cell culture media adjusted, read-out: CCM protein adjusted Cmax), 536 nM; in data set [1] (human, plasma, 400 mg, ABT-199, 400 mg dose, read-out: exposures Cmax), 2300 nM. Further, the CCM/buffer entry in data set [2] (free fraction, cell culture media) is recorded as “CCM/buffer 0.44%”. Also, in data set [2] (free fraction, human plasma), the HP/buffer result was “HP/buffer 0.10%”. Moreover, the “exposures Cmax” value in data set [3] was 2000 ng/mL. The “exposures Cmin” value in data set [3] was 200 ng/mL.
As for `Cc1noc(C)c1-c1cc(C(O)(c2ccccn2)c2ccccn2)c2nc(C3CC3)[nH]c2c1` [Compound A], the “CCM adjusted Cave” value in data set [1] (human, in vivo) is listed as 40 nM. Moreover, the “CCM adjusted Cmin” value in data set [1] (human, in vivo) is 10 nM. The Cmax in data set [1] (human, in vivo, 4 mg, CCM protein adjusted CCM Cmax) was 111 nM; in data set [1] (human, in vivo, 4 mg, exposures Cmax), 279 ng/mL and 638 nM; in data set [1] (human, in vivo, CCM adjusted Cmax), 90 nM; in data set [1] (human, in vivo, protein adjusted Cmax concentration), around 113 nM. In addition, the CCM/buffer entry in data set [2] is recorded as “CCM/buffer 67%”. In data set [2] (human), the HP/buffer entry is “HP/buffer 11.7”. For the same molecule, the concentration giving a half-maximal response (EC50) (usually the concentration at which the effect is half-maximal) is at most 155 nM in the data set on Myc protein (Homo sapiens); 284 nM in the data set on Myc protein; 2500 nM in the data set with DLBCL and FL cell lines (Homo sapiens, one responding cell line with EC50 above 113 nM); < 113 nM and 274 nM and 881 nM in the data set with DLBCL and FL cell lines (individual responding cell lines, three or four days); 12 to 72 nM with DLBCL cell lines (DLBCL cell lines of FIG. 1, read-out: growth inhibition EC50 range across cell lines); 40 nM with DLBCL cell lines (mean over subset of cell lines of FIG. 1, read-out: growth inhibition mean EC50). Moreover, in the data set on DLBCL and FL cell lines (cell lines that did not undergo apoptosis (10 of 21; 8 of the FIG. 1 subset)), the “% apoptosis by 1 μM” value was below 30%. Further, the “% Annexin V positive after treatment with 1 μM” value with DLBCL and FL cell lines (eight cell lines with EC50 <113 nM) is reported as above 30%. In addition, the “lines refractory to Bcl-2 inhibition that undergo apoptosis” value in the data set with DLBCL and FL cell lines (of the 8 lines refractory to venetoclax (FIG. 4)) is on record as 6. In addition, the “number of cell lines that underwent apoptosis” value in the data set with DLBCL and FL cell lines (of twenty-one DLBCL and FL cell lines, single agent) is reported as 11. Also, the “subset of DLBCL cell lines in which apoptosis was induced” value in the data set with DLBCL and FL cell lines (share of DLBCL cell lines) came to 58%.

Values taken from patent US20180133212A1, “COMBINATION OF A BCL-2 INHIBITOR AND A BROMODOMAIN INHIBITOR FOR TREATING CANCER” (Gilead Sciences, Inc., priority 2016, published 2018).
